Measured values reported in patent US7662404B2, “Transdermal delivery system for dried particulate or lyophilized peptides and polypeptides” (TransPharma Medical Ltd., priority 2002, dated 2010).
“And” between values parts separate entries of the source, which are not always exact repeats. Equal entries are not always repeated. Where two headings read alike, the source gives them in different places.

Experiment: Plasma hPTH (1-34) in female adult healthy human volunteers, ViaDerm and printed patches or SC (Example 13)
Type: in vivo
Set-up: AUC (individual subjects): unit not given here
Details: for Cmax (individual subjects): women; for Cmax (individual subjects) / AUC (individual subjects) / AUC: 12 h; for AUC / Tmax / Cmax: female, human, plasma
Experimental: Transdermal drug delivery study of hPTH (1-34) in four female adult healthy human volunteers was performed using ViaDerm and printed patches.
To evaluate the transdermal delivery of hPTH (1-34), printed patches containing 100 μg or 200 μg hPTH (1-34) (FORTEO®, Teriparatide purchased from Ely Lilly, Indianapolis, Ind., USA) were prepared. Patch area was 1.44 cm^2.
ViaDerm parameters: electrode array of 75 or 100 micro-channels/cm^2; ViaDerm was applied two or three times generating micro-channels at a density of 150 or 300 micro-channels/cm^2; Voltage: 290 volts, constant voltage; Burst length: 5000 μsec; Maximal current: 50 mA.
Each female adult received five treatments of hPTH (1-34) with a minimum of 2 day clearance between treatments. The treatments were as follows: • 1. Three ViaDerm applications (final density of 300 micro-channels/cm^2) on one site of the upper arm. Two printed patches, each containing 100 μg hPTH (1-34), were placed over the application area (each for 6 hours). • 2. Two ViaDerm applications (final density of 150 micro-channels/cm^2) on one site of the upper arm. Two printed patches, each containing 200 μg hPTH (1-34), were placed over the application area. • 3. Three ViaDerm applications (final density of 300 micro-channels/cm^2) on one site of the upper arm. Two printed patches, each containing 200 μg hPTH (1-34), were placed over the application area. • 4. Subcutaneous (SC) injection of 20 μg hPTH (1-34) (FORTEO®, Teriparatide was purchased from Ely Lilly, Indianapolis, Ind., USA). • 5. SC injection of 60 μg hPTH (1-34) (FORTEO®).
Plasma hPTH (1-34), calcium ions and phosphate ions were determined by Eliza using commercial kits.

## CC[C@H](C)[C@H](NC(=O)[C@H](CCC(=O)O)NC(=O)[C@H](CO)NC(=O)[C@@H](NC(=O)[C@@H](N)CO)C(C)C)C(=O)N[C@@H](CCC(N)=O)C(=O)N[C@@H](CC(C)C)C(=O)N[C@@H](CCSC)C(=O)N[C@@H](Cc1cnc[nH]1)C(=O)N[C@@H](CC(N)=O)C(=O)N[C@@H](CC(C)C)C(=O)NCC(=O)N[C@@H](CCCCN)C(=O)N[C@@H](Cc1cnc[nH]1)C(=O)N[C@@H](CC(C)C)C(=O)N[C@@H](CC(N)=O)C(=O)N[C@@H](CO)C(=O)N[C@@H](CCSC)C(=O)N[C@@H](CCC(=O)O)C(=O)N[C@@H](CCCN=C(N)N)C(=O)N[C@H](C(=O)N[C@@H](CCC(=O)O)C(=O)N[C@@H](Cc1c[nH]c2ccccc12)C(=O)N[C@@H](CC(C)C)C(=O)N[C@@H](CCCN=C(N)N)C(=O)N[C@@H](CCCCN)C(=O)N[C@@H](CCCCN)C(=O)N[C@@H](CC(C)C)C(=O)N[C@@H](CCC(N)=O)C(=O)N[C@@H](CC(=O)O)C(=O)N[C@H](C(=O)N[C@@H](Cc1cnc[nH]1)C(=O)N[C@@H](CC(N)=O)C(=O)N[C@@H](Cc1ccccc1)C(=O)O)C(C)C)C(C)C [hPTH (1-34)]
T-1: 300 micro-channels/cm^2, 2 printed patches each 100 μg (dose 200 ug)
  Cmax (individual subjects): 0.094366 ng/mL and 0.394054 ng/mL and 0.437693 ng/mL and 0.39756 ng/mL
T-1: 300 micro-channels/cm^2, 2 printed patches each 100 μg
  AUC (individual subjects): 346 and 1340 and 1097 and 1067
T-1: 300 micro-channels/cm^2, 2 printed patches each 100 μg, mean of 4 women
  Cmax AVG: 0.330918 ng/mL
T-2: 150 micro-channels/cm^2, 2 printed patches each 200 μg (dose 400 ug)
  Cmax (individual subjects): 0.072528 ng/mL and 0.463893 ng/mL and 1.293464 ng/mL and 0.739311 ng/mL
T-2: 150 micro-channels/cm^2, 2 printed patches each 200 μg
  AUC (individual subjects): 398 and 1498 and 3743 and 2128
T-2: 150 micro-channels/cm^2, 2 printed patches each 200 μg, mean of 4 women
  Cmax AVG: 0.642299 ng/mL
T-3: 300 micro-channels/cm^2, 2 printed patches each 200 μg (dose 400 ug)
  Cmax (individual subjects): 0.296887 ng/mL and 0.534872 ng/mL and 1.304179 ng/mL and 0.46945 ng/mL
T-3: 300 micro-channels/cm^2, 2 printed patches each 200 μg
  AUC (individual subjects): 886 and 1251 and 4649 and 1327
T-3: 300 micro-channels/cm^2, 2 printed patches each 200 μg, mean of 4 women
  Cmax AVG: 0.651347 ng/mL
T-4: SC injection of 20 μg
  Tmax (individual subjects): 6.0 h and 0.3 h and 0.5 h
  AUC (individual subjects): 172 and 158 and 176
  Cmax (individual subjects): 0.012196 ng/mL and 0.037556 ng/mL and 0.02935 ng/mL and 0.038062 ng/mL
T-4: SC injection of 20 μg, mean of 4 women
  Cmax AVG: 0.029291 ng/mL
T-5: SC injection of 60 μg
  Tmax (individual subjects): 0.5 h
  AUC (individual subjects): 84 and 100 and 474 and 399
  Cmax (individual subjects): 0.059209 ng/mL and 0.066482 ng/mL and 0.185324 ng/mL and 0.13504 ng/mL
T-5: SC injection of 60 μg, mean of 4 women
  Cmax AVG: 0.111514 ng/mL
100 ug, T-1: 300 micro-channels/cm^2, 2 printed patches each 100 μg, mean of 4 women, read-out: AUC AVG
  AUC: 0.963 ng·h/mL
100 ug, T-1: 300 micro-channels/cm^2, 2 printed patches each 100 μg, read-out: Tmax (individual subjects)
  Tmax: 1 h
other: transdermal printed patch on ViaDerm-treated skin, 100 ug, T-1: 300 micro-channels/cm^2, 2 printed patches each 100 μg, mean of 4 women
  Cmax: 0.331 ng/mL
other: transdermal printed patch on ViaDerm-treated skin, 100 ug, T-1: 300 micro-channels/cm^2, 2 printed patches each 100 μg, mean of 4 women, read-out: Tmax AVG
  Tmax: 1.5 h
other: transdermal printed patch on ViaDerm-treated skin, 200 ug, T-2: 150 micro-channels/cm^2, 2 printed patches each 200 μg, mean of 4 women, read-out: AUC AVG
  AUC: 1.94 ng·h/mL
other: transdermal printed patch on ViaDerm-treated skin, 200 ug, T-2: 150 micro-channels/cm^2, 2 printed patches each 200 μg, mean of 4 women
  Cmax: 0.642 ng/mL
other: transdermal printed patch on ViaDerm-treated skin, 200 ug, T-2: 150 micro-channels/cm^2, 2 printed patches each 200 μg, mean of 4 women, read-out: Tmax AVG
  Tmax: 2.1 h
other: transdermal printed patch on ViaDerm-treated skin, 200 ug, T-2: 150 micro-channels/cm^2, 2 printed patches each 200 μg, read-out: Tmax (individual subjects)
  Tmax: 1.5 h
other: transdermal printed patch on ViaDerm-treated skin, 200 ug, T-3: 300 micro-channels/cm^2, 2 printed patches each 200 μg, mean of 4 women, read-out: AUC AVG
  AUC: 2.03 ng·h/mL
other: transdermal printed patch on ViaDerm-treated skin, 200 ug, T-3: 300 micro-channels/cm^2, 2 printed patches each 200 μg, mean of 4 women
  Cmax: 0.651 ng/mL
other: transdermal printed patch on ViaDerm-treated skin, 200 ug, T-3: 300 micro-channels/cm^2, 2 printed patches each 200 μg, mean of 4 women, read-out: Tmax AVG
  Tmax: 2 h
other: transdermal printed patch on ViaDerm-treated skin, 200 ug, T-3: 300 micro-channels/cm^2, 2 printed patches each 200 μg, read-out: Tmax (individual subjects)
  Tmax: 2.5 h
sc, 20 ug, T-4: SC injection of 20 μg, mean of 4 women, read-out: AUC AVG
  AUC: 0.152 ng·h/mL
sc, 20 ug, T-4: SC injection of 20 μg, read-out: AUC (individual subjects)
  AUC: 0.103 ng·h/mL
sc, 20 ug, T-4: SC injection of 20 μg, mean of 4 women
  Cmax: 0.022 ng/mL
sc, 20 ug, T-4: SC injection of 20 μg, mean of 4 women, read-out: Tmax AVG
  Tmax: 1.8 h
sc, 60 ug, T-5: SC injection of 60 μg, mean of 4 women, read-out: AUC AVG
  AUC: 0.264 ng·h/mL
sc, 60 ug, T-5: SC injection of 60 μg, mean of 4 women
  Cmax: 0.115 ng/mL
sc, 60 ug, T-5: SC injection of 60 μg, mean of 4 women, read-out: Tmax AVG
  Tmax: 0.8 h
sc, 60 ug, T-5: SC injection of 60 μg, read-out: Tmax (individual subjects)
  Tmax: 1 h
